Laboratory results published in ChEMBL document CHEMBL1201862, “PubChem BioAssay data set” (2004).
Calls of active or inactive are those of the source.

Assays:
[1] = molecular target: Alkaline phosphatase, placental type (Homo sapiens, UniProt P05187); test: PLAP enzyme inhibitors, confirmation, biochemical, luminescence (AID 1512); type: functional
[2] = molecular target: T1, Alkaline phosphatase, tissue-nonspecific isozyme (Homo sapiens, UniProt P05186); test: human TNAP enzyme inhibitors, SAR follow-up, biochemical, luminescent, dose response (AID 1056)
T1 sequence (P05186 whole entry): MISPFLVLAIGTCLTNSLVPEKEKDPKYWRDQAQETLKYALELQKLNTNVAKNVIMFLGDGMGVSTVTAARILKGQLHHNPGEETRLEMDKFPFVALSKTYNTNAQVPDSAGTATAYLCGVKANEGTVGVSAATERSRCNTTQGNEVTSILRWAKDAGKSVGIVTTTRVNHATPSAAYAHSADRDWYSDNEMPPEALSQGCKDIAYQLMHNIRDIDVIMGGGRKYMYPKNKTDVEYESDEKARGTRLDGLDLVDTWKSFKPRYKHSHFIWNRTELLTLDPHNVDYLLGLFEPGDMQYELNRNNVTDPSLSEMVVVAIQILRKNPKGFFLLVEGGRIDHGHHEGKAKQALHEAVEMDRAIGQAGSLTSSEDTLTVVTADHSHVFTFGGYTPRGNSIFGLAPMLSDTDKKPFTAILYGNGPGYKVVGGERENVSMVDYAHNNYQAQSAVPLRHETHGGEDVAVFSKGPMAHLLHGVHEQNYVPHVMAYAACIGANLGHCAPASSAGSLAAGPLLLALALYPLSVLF

[3] = Vero E6 cell cytotoxicity, dose response, cytotoxicity control for non-replicating M. tuberculosis project, secondary assay (AID 492998); type: functional, VeroE6; conditions: Vero C1008
[4] = molecular target: T2, Heat shock factor protein 1 (Mus musculus, UniProt P38532); test: HSF1 potentiators in luciferase reporter cells, confirmation, cell-based, NIH3T3, luminescence, dose retest (AID 435004); type: functional;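 also: stress induced by proteasome inhibitor MG132 added 30 min after compound; luciferase reporter driven by HSF1 response element in NIH3T3 cells; actives raise luminescence as potentiators of the MG132 stress response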
T2 sequence (P38532 whole entry): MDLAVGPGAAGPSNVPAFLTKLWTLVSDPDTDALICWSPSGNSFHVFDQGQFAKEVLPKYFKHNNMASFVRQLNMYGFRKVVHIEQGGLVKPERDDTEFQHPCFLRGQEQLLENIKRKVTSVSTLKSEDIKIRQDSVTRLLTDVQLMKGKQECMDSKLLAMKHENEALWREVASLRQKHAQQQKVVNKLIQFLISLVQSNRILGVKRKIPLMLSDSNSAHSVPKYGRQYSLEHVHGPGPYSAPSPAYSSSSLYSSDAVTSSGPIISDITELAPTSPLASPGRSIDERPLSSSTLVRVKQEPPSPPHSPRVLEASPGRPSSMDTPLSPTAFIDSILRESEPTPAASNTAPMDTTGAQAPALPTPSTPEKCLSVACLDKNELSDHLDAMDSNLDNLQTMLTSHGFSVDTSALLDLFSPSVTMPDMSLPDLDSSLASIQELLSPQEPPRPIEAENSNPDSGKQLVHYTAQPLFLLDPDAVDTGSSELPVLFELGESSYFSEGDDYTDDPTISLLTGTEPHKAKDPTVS

[5] = THP-1 cell cytotoxicity, dose response, cytotoxicity control for non-replicating M. tuberculosis project (AID 489025); type: functional
cells = type: functional
[6] = molecular target: Nucleotide-binding oligomerization domain-containing protein 2 (Homo sapiens, UniProt Q9HC29); test: NOD2 signaling inhibitors, cell-based, luminescence, uHTS, HEK293 (AID 1566); type: functional
Sequence of Nucleotide-binding oligomerization domain-containing protein 2 (Q9HC29 whole entry, the tested form may be a part): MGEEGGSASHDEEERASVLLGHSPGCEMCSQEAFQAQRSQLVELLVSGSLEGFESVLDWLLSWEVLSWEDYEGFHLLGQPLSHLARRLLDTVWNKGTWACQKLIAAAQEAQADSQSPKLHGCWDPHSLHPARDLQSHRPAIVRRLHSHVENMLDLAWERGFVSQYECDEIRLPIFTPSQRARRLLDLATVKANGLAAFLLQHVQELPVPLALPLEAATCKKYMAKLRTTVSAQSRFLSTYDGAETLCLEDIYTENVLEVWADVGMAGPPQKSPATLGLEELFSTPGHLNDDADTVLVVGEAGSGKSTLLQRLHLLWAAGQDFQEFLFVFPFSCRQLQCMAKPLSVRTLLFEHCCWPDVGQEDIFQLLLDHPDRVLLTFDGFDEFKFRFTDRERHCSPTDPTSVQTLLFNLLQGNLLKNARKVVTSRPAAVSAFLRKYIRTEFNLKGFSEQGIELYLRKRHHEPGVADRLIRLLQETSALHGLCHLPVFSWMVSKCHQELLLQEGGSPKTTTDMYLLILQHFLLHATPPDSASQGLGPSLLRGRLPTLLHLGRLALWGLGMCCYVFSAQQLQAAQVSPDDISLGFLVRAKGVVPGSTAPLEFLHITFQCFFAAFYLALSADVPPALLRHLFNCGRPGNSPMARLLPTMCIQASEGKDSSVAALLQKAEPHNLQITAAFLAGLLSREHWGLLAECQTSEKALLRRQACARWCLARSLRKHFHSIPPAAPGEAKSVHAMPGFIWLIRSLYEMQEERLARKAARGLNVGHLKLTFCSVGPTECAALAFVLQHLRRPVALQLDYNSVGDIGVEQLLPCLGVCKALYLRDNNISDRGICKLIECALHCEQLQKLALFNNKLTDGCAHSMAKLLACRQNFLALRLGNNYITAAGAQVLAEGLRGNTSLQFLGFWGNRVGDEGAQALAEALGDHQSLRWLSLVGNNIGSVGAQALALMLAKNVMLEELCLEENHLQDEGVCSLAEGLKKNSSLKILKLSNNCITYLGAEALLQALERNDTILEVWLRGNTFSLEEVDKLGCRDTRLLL

HEK293 [7] = test: NOD2 signaling inhibitors in MDP-stimulated cells, cell-based, uHTS, luminescence (AID 2001); type: functional; conditions: Homo sapiens
[8] = growth suppression of PTEN-null colon cells, dose response, cell-based, HCT116 PTEN knockout (AID 1047); type: functional;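 also: HCT116 colon tumor cells with PTEN knocked out; cells exposed to compound for 60 hours before readout; potency for loss of cell viability measured by luminescence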
Protein RecA = molecular target: T3, Protein RecA (Mycobacterium tuberculosis, UniProt P9WHJ3); test: Fluorescence Cell-Free Homogeneous Dose Retest to Identify Inhibitors of RecA-Intein Splicing Activity. [Related pubchem assays (depositor defined):AID2097, AID2223, AID489010, AID492950]; type: functional
T3 sequence (P9WHJ3 whole entry): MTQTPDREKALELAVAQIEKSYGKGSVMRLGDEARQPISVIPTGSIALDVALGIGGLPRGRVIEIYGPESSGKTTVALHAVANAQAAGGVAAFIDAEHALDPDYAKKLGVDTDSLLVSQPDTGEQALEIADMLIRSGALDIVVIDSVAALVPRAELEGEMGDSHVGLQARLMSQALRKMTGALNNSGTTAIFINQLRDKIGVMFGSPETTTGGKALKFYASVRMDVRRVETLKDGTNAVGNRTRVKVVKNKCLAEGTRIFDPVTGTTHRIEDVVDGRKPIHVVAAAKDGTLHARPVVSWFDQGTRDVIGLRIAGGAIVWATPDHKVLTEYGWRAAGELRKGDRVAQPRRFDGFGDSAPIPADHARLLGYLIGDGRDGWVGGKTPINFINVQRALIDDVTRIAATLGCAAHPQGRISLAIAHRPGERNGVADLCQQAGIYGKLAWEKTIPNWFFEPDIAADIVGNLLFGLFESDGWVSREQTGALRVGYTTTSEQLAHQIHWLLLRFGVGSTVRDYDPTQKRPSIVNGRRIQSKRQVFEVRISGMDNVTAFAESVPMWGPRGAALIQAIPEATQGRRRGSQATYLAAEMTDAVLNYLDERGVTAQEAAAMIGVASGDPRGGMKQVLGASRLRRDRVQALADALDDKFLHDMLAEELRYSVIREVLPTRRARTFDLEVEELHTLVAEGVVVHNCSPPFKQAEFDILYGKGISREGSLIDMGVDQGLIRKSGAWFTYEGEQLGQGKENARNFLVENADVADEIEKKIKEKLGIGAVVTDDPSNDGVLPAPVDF

HEK293 [9] = test: cells; type: functional, cell-based; conditions: Homo sapiens
HEK293 [10] = test: NOD1 signaling inhibitors, primary screen, cell-based, luminescence, uHTS (AID 1578); type: functional; conditions: Homo sapiens
[11] = growth suppression of beta-catenin-knockout colon cells, dose response, cell-based, HCT116, human colon tumor (AID 1045); type: functional;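 also: HCT116 colon tumor cells with beta catenin knocked out; cells exposed to compound for 60 hours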
[12] = molecular target: T4, Replicative DNA helicase DnaB (Mycobacterium tuberculosis, UniProt P9WMR3); test: DnaB intein splicing inhibitors, dose response, biochemical, cell-free fluorescence (AID 449749); type: functional
T4 sequence (P9WMR3 whole entry): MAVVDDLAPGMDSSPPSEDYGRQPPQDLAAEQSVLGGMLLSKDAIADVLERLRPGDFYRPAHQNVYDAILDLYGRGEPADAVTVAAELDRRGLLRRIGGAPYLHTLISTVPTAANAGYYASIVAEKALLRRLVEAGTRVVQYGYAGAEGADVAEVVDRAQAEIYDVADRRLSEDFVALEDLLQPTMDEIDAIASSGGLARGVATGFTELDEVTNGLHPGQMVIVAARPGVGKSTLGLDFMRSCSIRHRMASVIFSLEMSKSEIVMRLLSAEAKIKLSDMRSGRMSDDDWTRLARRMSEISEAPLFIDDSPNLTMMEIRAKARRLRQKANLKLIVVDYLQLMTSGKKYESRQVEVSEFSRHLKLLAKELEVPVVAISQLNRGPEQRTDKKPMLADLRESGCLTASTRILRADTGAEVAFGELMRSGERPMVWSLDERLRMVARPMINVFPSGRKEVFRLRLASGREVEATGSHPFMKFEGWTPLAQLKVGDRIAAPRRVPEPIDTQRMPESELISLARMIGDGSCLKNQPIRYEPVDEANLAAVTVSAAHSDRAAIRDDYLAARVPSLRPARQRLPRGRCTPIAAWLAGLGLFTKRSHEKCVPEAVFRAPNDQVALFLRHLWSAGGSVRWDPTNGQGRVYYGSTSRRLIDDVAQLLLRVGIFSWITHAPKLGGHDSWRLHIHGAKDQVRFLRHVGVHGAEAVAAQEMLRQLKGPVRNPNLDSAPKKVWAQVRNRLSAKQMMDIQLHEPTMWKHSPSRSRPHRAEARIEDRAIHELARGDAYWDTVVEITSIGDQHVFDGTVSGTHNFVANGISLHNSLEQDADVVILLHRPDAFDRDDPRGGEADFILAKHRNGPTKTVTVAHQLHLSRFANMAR

HEK293 [13] = test: cells; type: functional, cell-based; conditions: Homo sapiens; remark: listed apart in the source
[14] = molecular target: Heat shock protein HSP 90-alpha (Homo sapiens, UniProt P07900); type: functional, organism-based
HEK293 [15] = test: cells; type: functional, cell-based; conditions: Homo sapiens; remark: listed apart in the source
[16] = molecular target: T5, COUP transcription factor 2 (Homo sapiens, UniProt P24468); test: Luminescence-based cell-based high throughput dose response assay to identify inhibitors of COUP-TFII (NR2F2).; type: functional;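 also: HEK293 cells transiently cotransfected with COUP-TFII expression vector and reporter; luciferase reporter luminescence driven by COUP-TFII from the pX2-168 reporter plasmid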
T5 sequence (P24468 whole entry): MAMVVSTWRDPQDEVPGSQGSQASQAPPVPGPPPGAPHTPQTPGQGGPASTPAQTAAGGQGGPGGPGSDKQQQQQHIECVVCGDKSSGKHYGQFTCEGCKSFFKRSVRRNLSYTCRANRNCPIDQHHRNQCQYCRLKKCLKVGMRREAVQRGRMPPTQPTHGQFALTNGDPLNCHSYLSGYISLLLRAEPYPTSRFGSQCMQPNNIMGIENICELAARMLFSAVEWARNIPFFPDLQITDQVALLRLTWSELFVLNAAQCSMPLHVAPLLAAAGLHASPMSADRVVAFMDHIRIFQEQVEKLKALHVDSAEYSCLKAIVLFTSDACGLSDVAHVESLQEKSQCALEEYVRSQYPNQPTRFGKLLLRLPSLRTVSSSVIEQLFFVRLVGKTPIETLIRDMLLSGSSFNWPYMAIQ

[17] = molecular target: Glyceraldehyde-3-phosphate dehydrogenase (Homo sapiens, UniProt P04406)
Sequence of Glyceraldehyde-3-phosphate dehydrogenase (P04406 whole entry): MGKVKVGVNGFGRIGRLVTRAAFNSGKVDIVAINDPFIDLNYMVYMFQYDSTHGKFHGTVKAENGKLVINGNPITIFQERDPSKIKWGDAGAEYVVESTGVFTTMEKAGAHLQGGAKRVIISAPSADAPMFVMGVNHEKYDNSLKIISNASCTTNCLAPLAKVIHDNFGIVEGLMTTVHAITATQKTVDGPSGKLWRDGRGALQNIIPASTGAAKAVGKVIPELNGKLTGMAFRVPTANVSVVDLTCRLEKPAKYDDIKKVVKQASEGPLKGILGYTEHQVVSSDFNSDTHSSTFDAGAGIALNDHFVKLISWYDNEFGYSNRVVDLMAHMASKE

Sequence of Alkaline phosphatase, placental type (P05187 whole entry): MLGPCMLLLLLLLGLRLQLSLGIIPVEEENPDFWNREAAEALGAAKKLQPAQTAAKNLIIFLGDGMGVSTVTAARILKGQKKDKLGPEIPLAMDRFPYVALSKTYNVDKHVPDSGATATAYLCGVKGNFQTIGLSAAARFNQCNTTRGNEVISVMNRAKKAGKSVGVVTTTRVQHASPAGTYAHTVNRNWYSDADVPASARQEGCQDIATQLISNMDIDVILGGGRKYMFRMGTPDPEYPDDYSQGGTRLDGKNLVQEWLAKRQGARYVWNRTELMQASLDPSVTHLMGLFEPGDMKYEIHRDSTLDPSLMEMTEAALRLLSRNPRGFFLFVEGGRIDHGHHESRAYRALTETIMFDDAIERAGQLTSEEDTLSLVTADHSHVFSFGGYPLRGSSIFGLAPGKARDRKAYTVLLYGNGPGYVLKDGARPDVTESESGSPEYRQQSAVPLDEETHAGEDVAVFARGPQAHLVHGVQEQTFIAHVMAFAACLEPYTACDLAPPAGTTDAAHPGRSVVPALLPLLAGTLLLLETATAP

SMILES: CCc1nc(SCC(=O)c2ccc(O)cc2O)n[nH]1
- IC50 [1]: > 100 µM (inactive)
- IC50 [2]: > 100 µM (inactive)

SMILES: COc1ccc(C(=O)Cn2c(C)nc([N+](=O)[O-])c2Br)cc1
- CC50 [3]: > 20 µM (active)
- EC50 [4]: 19.8 µM (active)
- CC50 [5]: > 40 µM (active)
- IC50 (cells): 12.1 µM (active)

SMILES: CC(C)CC(=O)/C(=C\c1ccc(Cl)cc1Cl)n1cncn1
- EC50 [6]: > 20 µM (inactive)
- IC50 (HEK293 [7]): 7.85 µM (active)
- EC50 [8]: 4.72 µM (active)
- EC50 (Protein RecA): 11.2 µM (active)
- IC50 (HEK293 [9]): > 20 µM (inactive)
- EC50 (HEK293 [10]): > 20 µM (inactive)
- EC50 [11]: 4.31 µM (active)
- AC50 [12]: 11.8 µM (active)
- IC50 (HEK293 [13]): 9.81 µM (active)
- AC50 [14]: 2.04 µM (active)
- IC50 (HEK293 [15]): 4.25 µM (active)

SMILES: Cc1nc2c(-c3ccc(Cl)cc3)cnn2c(N)c1-c1ccc(F)cc1
- EC50 [6]: > 20 µM (inactive)
- IC50 (HEK293 [7]): > 20 µM (inactive)
- IC50 (HEK293 [9]): > 20 µM (inactive)
- EC50 (HEK293 [10]): > 20 µM (inactive)
- IC50 [16]: > 85.4 µM (inactive)
- IC50 (HEK293 [13]): > 20 µM (inactive)
- IC50 (HEK293 [15]): 2.34 µM (active)

SMILES: CCc1ccc(-c2ccc(-c3nc(N)nn3-c3ccccc3)cc2)cc1
- IC50 [1]: > 100 µM (inactive)
- IC50 [2]: > 100 µM (inactive)
- IC50 [17]: > 100 µM (not active)

SMILES: O=C(N/N=C\c1ccc([N+](=O)[O-])s1)C1COc2ccccc2O1 (centres undefined)
- CC50 [3]: 13.3 µM (active)
- IC50 (HEK293 [7]): 16.2 µM (inactive)
- EC50 (HEK293 [10]): 9.04 µM (active)
- CC50 [5]: 22.6 µM (active)
- IC50 (cells): 5.68 µM (active)
- IC50 (HEK293 [13]): > 20 µM (inactive)
- IC50 (HEK293 [15]): 19.1 µM (active)
